Test results published in BindingDB's records for doi:10.1016/j.ejmech.2020.112373 (Newlink Genetics, 2020).
pIC50: −log10 of the molar value.

How the values were obtained:
[1] = biological target: Solute carrier family 22 member 1, OCT1 (Homo sapiens) (UniProt O15245); assay: Inhibition of OCT1 (unknown origin) expressed in HEK293 cells
[2] = biological target: Solute carrier family 22 member 2, OCT2 (Homo sapiens) (UniProt O15244); assay: Inhibition of OCT2 (unknown origin) expressed in HEK293 cells
Sequence of Solute carrier family 22 member 2, OCT2 (Homo sapiens) (O15244 whole entry, looked up): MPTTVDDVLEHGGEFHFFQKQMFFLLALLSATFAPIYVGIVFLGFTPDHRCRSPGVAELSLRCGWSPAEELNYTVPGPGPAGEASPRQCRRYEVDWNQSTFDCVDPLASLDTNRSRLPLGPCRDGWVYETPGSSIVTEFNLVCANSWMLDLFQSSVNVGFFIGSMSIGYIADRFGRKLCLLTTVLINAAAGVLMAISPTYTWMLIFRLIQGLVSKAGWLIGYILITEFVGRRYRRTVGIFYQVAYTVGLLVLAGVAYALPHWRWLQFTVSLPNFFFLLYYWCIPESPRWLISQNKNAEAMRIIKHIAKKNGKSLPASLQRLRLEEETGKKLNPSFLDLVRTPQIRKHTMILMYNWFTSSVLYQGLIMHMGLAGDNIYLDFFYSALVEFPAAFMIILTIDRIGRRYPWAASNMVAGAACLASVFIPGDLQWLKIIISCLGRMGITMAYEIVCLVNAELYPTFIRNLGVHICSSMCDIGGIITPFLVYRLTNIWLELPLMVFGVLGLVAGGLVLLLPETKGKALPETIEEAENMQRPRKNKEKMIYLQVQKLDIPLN

Sequence of Solute carrier family 22 member 1, OCT1 (Homo sapiens) (O15245 whole entry, looked up): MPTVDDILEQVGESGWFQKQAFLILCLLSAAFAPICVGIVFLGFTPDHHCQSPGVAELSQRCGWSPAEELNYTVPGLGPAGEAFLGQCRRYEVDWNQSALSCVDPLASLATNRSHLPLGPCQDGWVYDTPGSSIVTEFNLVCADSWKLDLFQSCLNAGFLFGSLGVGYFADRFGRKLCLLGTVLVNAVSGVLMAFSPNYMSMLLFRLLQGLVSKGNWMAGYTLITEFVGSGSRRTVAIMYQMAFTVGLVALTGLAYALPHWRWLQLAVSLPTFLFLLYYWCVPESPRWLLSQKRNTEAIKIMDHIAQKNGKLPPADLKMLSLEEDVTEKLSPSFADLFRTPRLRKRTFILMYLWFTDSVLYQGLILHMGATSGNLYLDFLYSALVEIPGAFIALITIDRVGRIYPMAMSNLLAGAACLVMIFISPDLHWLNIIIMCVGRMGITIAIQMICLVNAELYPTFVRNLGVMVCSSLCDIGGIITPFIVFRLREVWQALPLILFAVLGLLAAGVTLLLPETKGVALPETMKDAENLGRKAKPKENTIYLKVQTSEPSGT

Question: With `CCOC(=O)[C@@H](Cc1cn(C)c2ccccc12)NC(=O)[C@@H](N)CC(C)C` as the molecule, how does the pIC50 [1] read?
Answer: < 4.30

Question: What about the pIC50 [2] of the same molecule?
Answer: < 4.30
